Measured values taken from paper PMC5059567 (International Journal of Endocrinology, 2016).
Each block holds one compound with its values, some of them ahead of it.

How the values were obtained:
patients affected by ATC [1] = experiment: Randomized phase II/III trial: overall survival and progression-free survival; format: in vivo, human; conditions: TAX 80 mg/m^2 weekly i.v. with or without VPA 1,000 mg/day p.o.
Description: The diagnosis was obtained by cytological examination of specimens following fine-needle aspiration and was confirmed by histologic examination in all patients who underwent surgery. Examination was performed by two different pathologists with proven experience in thyroid cancer. Inclusion criteria were (a) patients with radiologically or clinically confirmed disease progression during or after multimodal therapy (surgery, if performed, first-line systemic chemotherapy with doxorubicin and cisplatin, and external beam radiation (EBR)); (b) patients not eligible for surgery or EBR because of tumor local invasion or severe comorbidities. […] Patients or their legal representatives needed to be able to read, understand, and provide written informed consent to participate in the trial, according to the Declaration of Helsinki.
In the absence of disease progression, patients of both groups were treated up to 18 chemotherapy cycles. Primary outcomes were (1) overall survival and (2) disease progression, evaluated in terms of progression-free survival (PFS). The extent of thyroid neoplasia and secondary lesions were assessed at the beginning of treatment by computer tomography (CT) scans of head, neck, chest, and abdomen. Local recurrence or lymph node metastases were evaluated also by high definition neck ultrasonography (US). […]

patients affected by ATC [2] = experiment: Safety/toxicity in the trial (Common Toxicity Criteria, serum biochemistry); format: in vivo, human; conditions: ATC patients enrolled in the study
Description: Hemogram, serum biochemistry, and electrolyte levels were measured before each chemotherapy cycle and when clinically indicated; toxicity was evaluated according to the Common Toxicity Criteria (CTC). […] In the presence of Grade 4 toxicity or in case of severe allergic reaction, treatment was definitively stopped.

[3] = Pharmacokinetics of TAX in plasma (noncompartmental, HPLC-UV); format: in vivo, human
Description: Blood samples were centrifuged immediately for 10 min at 1,000 ×g at room temperature and the resulting plasma was frozen and stored at −80°C until analysis.
Briefly, a volume of 200 μL of acetonitrile, 300 μL of deionized water, and 5 mL of tertbutylmethylether was added to 100 μL of plasma samples in borosilicate glass tubes. The mixture was vortexed for 30 sec and centrifuged at 2,500 ×g for 15 min. Upon centrifugation, 3 mL of the organic layer was transferred to a clean glass tube and evaporated to dryness under nitrogen. The residue was then reconstituted with 200 μL of 60% acetonitrile in deionized water and mixed on a vortex mixer for 90 sec; then 100 μL of the reconstituted sample was injected into the HPLC system equipped with a Symmetry C18 column (250 × 4.6 mm i.d., particle size 5 μm) and a Symmetry C18 guard column supplied by Waters (Vimodrone, Milan, Italy). Chromatographic analysis was performed at room temperature (20 ± 2°C) by isocratic elution with a mobile phase consisting in a mixture of acetonitrile—0.1% phosphoric acid in deionized water (60 : 40, v/v) (Milli-Q Plus System, Millipore, Milford, MA, USA) at a flow-rate of 1.0 mL/min.
The Mann–Whitney nonparametric test was used to compare pharmacokinetic values of the two different groups of patients; statistical evaluation was performed using Instat 3.05 software (Graphpad, San Diego, USA).

P-gp = conditions: preclinical in vitro and in vivo experiments; cited from earlier work
ATC cell lines = conditions: combination with TAX; cited from earlier work
CYP3A4 = conditions: preclinical in vitro; read-out: Ki (CYP3A4 inhibition); cited from earlier work
Serum levels of VPA = format: in vivo, human; conditions: oral 1,000 mg valproate daily, after two weeks of treatment; range 50–72
Description: Drug measurement was performed using the Dimension Vista System (Siemens, Healthcare, Erlangen, Germany). The therapeutic range was […].

ATC = ATC patients; cited from earlier work
[4] = human, intravenous, 80 mg/m^2, plasma, first chemotherapy cycle, 10 patients per group

Structure (SMILES): CC(=O)O[C@H]1C(=O)[C@@]2(C)[C@H]([C@H](OC(=O)c3ccccc3)[C@]3(O)C[C@H](OC(=O)[C@H](O)[C@@H](NC(=O)c4ccccc4)c4ccccc4)C(C)=C1C3(C)C)[C@]1(OC(C)=O)CO[C@@H]1C[C@@H]2O [TAX, paclitaxel]
Median survival (patients affected by ATC [1]; Kaplan-Meier from enrollment, P = 0.9): 148 days
Median time to progression (patients affected by ATC [1]; P = 0.6): 51 days
severe adverse effect (patients affected by ATC [2]): No severe adverse effect
Cmax [3, 4]: 1160 ng/mL
Vd [3, 4]: 52.1 L
clearance [3, 4]: 664 mL/min
half-life [3, 4]: 2.03 h
k el [3, 4]: 9.44e-05 s⁻¹

valproate blood levels (Serum levels of VPA): 67 µg/mL
Structure (SMILES): CCCC(CCC)C(=O)O [VPA, valproic acid]
P-gp expression (P-gp): induce the overexpression
VPA dose at which enhancement of TAX cytostatic and cytotoxic activity was reached (ATC cell lines): 0.7 mM

Structure (SMILES): COc1ccc(C[C@@H](O)c2cc(OC)c(OC)c(OC)c2)cc1O [combretastatin]
median survival reported in clinical trials (ATC): 5.2 months

Structure (SMILES): Cc1ccc(Nc2nccc(N(C)c3ccc4c(C)n(C)nc4c3)n2)cc1S(N)(=O)=O [pazopanib]
median survival reported in clinical trials (ATC): 111 days

Structure (SMILES): CNC(=O)c1cc(Oc2ccc(NC(=O)Nc3ccc(Cl)c(C(F)(F)F)c3)cc2)ccn1 [sorafenib]
median survival reported in clinical trials (ATC): 3.9 months
